Test results: patent US10703764B2, “Benzopiperazine compositions as BET bromodomain inhibitors” (FORMA Therapeutics, Inc., priority 2013, dated 2020)

Columns and labels:
BRD4 BD2 = biological target: T1, BRD4 BD2 (Homo sapiens, UniProt O60885); assay: AlphaScreen binding assay, BRD4 Bromodomain 2
T1 construct: made in house
Protocol: (§1) The binding of Example compounds to BRD4 Bromodomain 1 and BRD4 Bromodomain 2 was assessed using 384-well AlphaScreen assay technology. His-epitope tagged BRD4 BD144-168 and BRD4 BD2333-460 were cloned, expressed, and purified to homogeneity. BRD4 BD1 and BRD4 BD2 binding and inhibition was assessed by monitoring the engagement of biotinylated Histone H4 (1-21) K5/8/12/16 tetra-acetylated peptide with the targets using the AlphaScreen technology (PerkinElmer). Specifically, in a 384-well black or white flat bottom plate, BRD4 BD1 (50 nM final) or BRD4 BD2 (100 nM final) was combined with peptide (50 nM final for BD1 or 100 nM final for BD2) in 50 mM HEPES (pH 7.3), 100 mM NaCl, 0.1% (w/v) BSA, and 0.01% (w/v) Triton X-100 either in the presence of DMSO (final 1.25% DMSO) or compound dilution series in DMSO. Alpha streptavidin donor beads and Nickel-chelate acceptor beads were added to a final concentration of 10 μg/ml each. After a minimum of 1 hour equilibration, plates were read on a BMG PHERAstar FS multi-label reader (BMG LabTech). The half maximal inhibitory concentration (IC50) values were calculated using IDBS Activity Base software with a four parameter logistic curve fit by the equation y=A+((B−A)/(1+((C/x)^D))), wherein A denotes the bottom plateau of the curve, B denotes the top plateau of the curve, C denotes the x value at the middle of the curve, D denotes the slope factor, x denotes the original known x values, and y denotes the original known y values. Data was fitted using the Levenburg Marquardt algorithm.

BRD4 BD1 = biological target: T2, BRD4 BD1 (Homo sapiens, UniProt O60885); assay: AlphaScreen binding assay, BRD4 Bromodomain 1
T2 construct: made in house
Protocol: as §1

IC50 (BRD4 BD2) [µM] | IC50 (BRD4 BD1) [µM] | Compound
> 0.5 | 1 to 10 | CC(=O)N1c2ccc(-c3c(C)n[nH]c3C)cc2N(C(=O)OC(C)C)CC1C (centres unmarked) [Example I-333]
> 0.5 | 1 to 10 | CC(=O)N1c2ccc(-c3cnn(-c4ccccc4)c3)cc2N(C(=O)OC(C)C)C[C@@H]1C [Example I-334]
> 0.5 | 1 to 10 | CC(=O)N1c2ccc(-c3c[nH]nc3C(F)(F)F)cc2N(C(=O)OC(C)C)CC1C (centres unmarked) [Example I-335]
0.05 to 0.5 | 1 to 10 | CC(=O)N1c2ccc(-c3cnn(C)c3C)cc2N(C(=O)OC(C)C)C[C@@H]1C [Example I-339]
> 0.5 | 1 to 10 | CC(C)OC(=O)N1C[C@H](C)N(C(=O)C2CC2)c2ccc(-c3cnn(CC(=O)O)c3)cc21 [Example I-340]
0.05 to 0.5 | 1 to 10 | COC(=O)N1c2ccc(-c3cnn(CC(=O)O)c3)cc2N(C(=O)OC(C)C)C[C@@H]1C [Example I-341]
0.05 to 0.5 | 1 to 10 | CC(=O)N1c2ccc(-c3cnn(CCO)c3)cc2N(C(=O)C2CC2)C[C@@H]1C [Example I-342]
0.05 to 0.5 | 1 to 10 | CC(=O)N1c2ccc(-c3cnn(CC(C)(C)O)c3)cc2N(C(=O)C2CC2)C[C@@H]1C [Example I-343]
0.05 to 0.5 | 1 to 10 | CC(=O)N1c2ccc(-c3cnn(CCS(C)(=O)=O)c3)cc2N(C(=O)C2CC2)CC1C (centres unmarked) [Example I-344]
0.05 to 0.5 | 1 to 10 | CC(C)OC(=O)N1C[C@H](C)N(C(C)C2CC2)c2ccc(-c3cnn(C4CNC4)c3)cc21 (some centres unmarked) [Example I-357]

Further lines, the compound ahead of its results:

Compound | IC50 (BRD4 BD2) [µM] | IC50 (BRD4 BD1) [µM]
CC(=O)N1c2ccc(-c3ccc(S(C)(=O)=O)cc3)cc2N(C(=O)N(C)C)C[C@@H]1C [Example I-248] | 0.05 to 0.5 | > 10
COCCOC(=O)N1C[C@H](C)N(C(C)=O)c2ccc(-c3ccc(S(C)(=O)=O)cc3)cc21 [Example I-249] | > 0.5 | 1 to 10
CNC(=O)N1C[C@H](C)N(C(C)=O)c2ccc(-c3ccc(S(C)(=O)=O)cc3)cc21 [Example I-253] | > 0.5 | > 10
CC(=O)N1c2ccc(-c3ccc(S(C)(=O)=O)cc3)nc2N(C(=O)OC(C)C)C[C@@H]1C [Example I-254] | > 0.5 | 1 to 10
CC(=O)N1c2ccc(-c3cnn(C4CC4)c3)nc2N(C(=O)OC(C)C)C[C@@H]1C [Example I-255] | 0.05 to 0.5 | 1 to 10
CC(=O)N1c2ccc(-c3cnn(C)c3C)cc2N(C(=O)c2ccco2)C[C@@H]1C [Example I-270] | 0.05 to 0.5 | 1 to 10
CC(=O)N1c2ncc(-c3ccc(S(C)(=O)=O)cc3)cc2N(C(=O)c2ccco2)C[C@@H]1C [Example I-271] | 0.05 to 0.5 | 1 to 10
CC(=O)N1c2ncc(-c3ccc(C(=O)N(C)C)cc3)cc2N(C(=O)c2ccco2)C[C@@H]1C [Example I-272] | 0.05 to 0.5 | 1 to 10
CCCn1cc(-c2cnc3c(c2)N(C(=O)c2ccco2)C[C@H](C)N3C(C)=O)cn1 [Example I-273] | > 0.5 | 1 to 10
CC(=O)N1c2ccc(-c3cnc(N)nc3)cc2N(C(=O)c2ccco2)C[C@@H]1C [Example I-296] | 0.05 to 0.5 | 1 to 10
CC(=O)N1c2ccc(-c3ccc(S(C)(=O)=O)cc3)cc2N(C(=O)OC(C)C)C[C@H]1C [Example I-297] | > 0.5 | > 10
CC(=O)N1c2ccc(-c3ccc(N4CCCC4)cc3)cc2N(C(=O)c2ccco2)C[C@@H]1C [Example I-298] | 0.05 to 0.5 | 1 to 10
CC(=O)N1c2ccc(-c3ccc(S(C)(=O)=O)cc3)nc2N(C(=O)c2ccco2)C[C@@H]1C [Example I-300] | 0.05 to 0.5 | 1 to 10
CC(=O)N1c2ccc(-c3ccc(S(C)(=O)=O)cc3)nc2N(C(=O)C2CC2)C[C@@H]1C [Example I-301] | > 0.5 | 1 to 10
CC(C)OC(=O)N1C[C@H](C)N(C(=O)C2CC2)c2ccc(-c3cnn(CC(=O)N(C)C)c3)cc21 [Example I-311] | 0.05 to 0.5 | 1 to 10
